From ChEMBL document CHEMBL1201862, “PubChem BioAssay data set” (2004)
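Following 48 hours of exposure in 96-well plates, responses at five concentrations were used to interpolate endpoints linearly. GI50 is the concentration that inhibits growth by half.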 Active and inactive are the calls of the source. No stated cut-off is given here; in the data, active = GI50 up to about 1.1 µM and inactive = higher.

Assays:
Test in all cases: NCI tumour cell line growth inhibition, 48 h
[1] = tested on: IGROV-1
[2] = tested on: SNB-19
[3] = tested on: SK-MEL-5
[4] = tested on: ACHN
[5] = tested on: RXF 393
[6] = tested on: SNB-75
[7] = tested on: HCT-116
[8] = tested on: MDA-MB-231
[9] = tested on: NCI-H226
[10] = tested on: UACC-62
[11] = tested on: SN12C
[12] = tested on: MCF7
[13] = tested on: A549
[14] = tested on: U-251
[15] = tested on: SK-OV-3
[16] = tested on: Malme-3M
[17] = tested on: HT-29
[18] = tested on: NCI-H522
[19] = tested on: SK-MEL-28
[20] = tested on: Hs-578T
[21] = tested on: DU-145
[22] = tested on: OVCAR-4
[23] = tested on: SW-620
[24] = tested on: TK-10
[25] = tested on: OVCAR-8
[26] = tested on: OVCAR-5
[27] = tested on: SF-268
[28] = tested on: SF-539
[29] = tested on: EKVX
[30] = tested on: COLO 205
[31] = tested on: T47D
[32] = tested on: NCI-H23
[33] = tested on: MDA-MB-435
[34] = tested on: OVCAR-3
[35] = tested on: CAKI-1
[36] = tested on: KM12
[37] = tested on: NCI/ADR-RES
[38] = tested on: SK-MEL-2
[39] = tested on: HCT-15
[40] = tested on: SF-295
[41] = tested on: LOX IMVI
[42] = tested on: M14
[43] = tested on: 786-0
[44] = tested on: UACC-257
[45] = tested on: NCI-H460
[46] = tested on: HOP-62
[47] = tested on: UO-31
[48] = tested on: MOLT-4
[49] = tested on: SR
[50] = tested on: RPMI-8226
[51] = tested on: CCRF-CEM
[52] = tested on: HCC 2998
[53] = tested on: HOP-92
[54] = tested on: K562
[55] = tested on: MDA-N

In the case of `CC(C)C(=O)/C=C/S/C=C/C(=O)C(C)C`, the GI50 [1] is reported as 19.5 µM (inactive), the GI50 [2] is reported as 28.3 µM (inactive) and the GI50 [3] is reported as 5.83 µM (inactive). For the same compound, the GI50 [4] was 2.24 µM (inactive), the GI50 [5] was 4.54 µM (inactive) and the GI50 [6] was 45.1 µM (inactive). For the same compound, the GI50 [7] was 1.69 µM (inactive), the GI50 [8] was 3.7 µM (inactive) and the GI50 [9] was 7 µM (inactive). The GI50 [10] was 9.46 µM (inactive), the GI50 [11] was 14.2 µM (inactive) and the GI50 [12] was 23 µM (inactive). For the same compound, the GI50 [13] was 32.3 µM (inactive), the GI50 [14] was 18.6 µM (inactive) and the GI50 [15] was 41.8 µM (inactive). For the same compound, the GI50 [16] was 6.7 µM (inactive), the GI50 [17] was 4.09 µM (inactive) and the GI50 [18] was 1.19 µM (inactive). The GI50 [19] was 4.28 µM (inactive), the GI50 [20] was 21.6 µM (inactive) and the GI50 [21] was 13.4 µM (inactive). For the same compound, the GI50 [22] was 6.17 µM (inactive), the GI50 [23] was 3.33 µM (inactive) and the GI50 [24] was > 100 µM (inactive). For the same compound, the GI50 [25] was 2.7 µM (inactive), the GI50 [26] was 5.27 µM (inactive) and the GI50 [27] was 26.2 µM (inactive). For the same compound, the GI50 [28] was 16.8 µM (inactive), the GI50 [29] was 5 µM (inactive) and the GI50 [30] was 2.94 µM (inactive). The GI50 [31] was 5.16 µM (inactive), the GI50 [32] was 2.59 µM (inactive) and the GI50 [33] was 10.4 µM (inactive). For the same compound, the GI50 [34] was 3.62 µM (inactive), the GI50 [35] was 3.56 µM (inactive) and the GI50 [36] was 30.3 µM (inactive). The GI50 [37] was 2.83 µM (inactive), the GI50 [38] was 23.4 µM (inactive) and the GI50 [39] was 3.2 µM. The GI50 [40] was 34.9 µM (inactive), the GI50 [41] was 3.31 µM (inactive) and the GI50 [42] was 3.92 µM (inactive). For the same compound, the GI50 [43] was 2.53 µM (inactive), the GI50 [44] was 2.72 µM (inactive) and the GI50 [45] was 10.8 µM (inactive). The GI50 [46] was 21.2 µM (inactive) and the GI50 [47] was 4.93 µM (inactive).
For `C=C1C(=O)O[C@H]2C1C[C@H](O)/C(C)=C/CC[C@@]1(C)O[C@H]21` (stereo partly drawn), the GI50 [1] was 14.8 µM (inactive), the GI50 [2] was 60.1 µM (inactive) and the GI50 [3] was 10.7 µM (inactive). For the same compound, the GI50 [4] was 8.38 µM (inactive), the GI50 [48] was 2.59 µM (inactive) and the GI50 [5] was 15 µM (inactive). For the same compound, the GI50 [6] was 32.3 µM (inactive), the GI50 [7] was 14.8 µM (inactive) and the GI50 [8] was 18.9 µM (inactive). For the same compound, the GI50 [49] was 6.04 µM (inactive), the GI50 [50] was 5.2 µM (inactive) and the GI50 [10] was 10.9 µM (inactive). For the same compound, the GI50 [11] was 18.2 µM (inactive), the GI50 [12] was 13.2 µM (inactive) and the GI50 [13] was > 100 µM (inactive). The GI50 [14] was > 100 µM (inactive), the GI50 [15] was 36.5 µM (inactive) and the GI50 [16] was 6.14 µM (inactive). For the same compound, the GI50 [17] was 23.3 µM (inactive), the GI50 [18] was 1.69 µM (inactive) and the GI50 [19] was 23.8 µM (inactive). For the same compound, the GI50 [20] was 23.6 µM (inactive), the GI50 [21] was 21.2 µM (inactive) and the GI50 [22] was 14.1 µM (inactive). The GI50 [23] was 2.09 µM (inactive), the GI50 [24] was 15.6 µM (inactive) and the GI50 [25] was 18 µM (inactive). The GI50 [26] was 19.1 µM (inactive), the GI50 [27] was 29.4 µM (inactive) and the GI50 [29] was 19 µM (inactive). For the same compound, the GI50 [30] was 0.782 µM (active), the GI50 [32] was 19 µM (inactive) and the GI50 [51] was 3.04 µM (inactive). For the same compound, the GI50 [33] was 17.8 µM (inactive), the GI50 [35] was 14.5 µM (inactive) and the GI50 [36] was 14.7 µM (inactive). The GI50 [37] was 14.6 µM (inactive), the GI50 [38] was 15.2 µM (inactive) and the GI50 [39] was 12.2 µM. For the same compound, the GI50 [52] was 14.4 µM (inactive), the GI50 [40] was 31.5 µM (inactive) and the GI50 [53] was 17.3 µM (inactive). The GI50 [41] was 9.29 µM (inactive), the GI50 [42] was 10.4 µM (inactive) and the GI50 [43] was 16.9 µM (inactive). For the same compound, the GI50 [44] was 16.7 µM (inactive), the GI50 [54] was 8.53 µM (inactive) and the GI50 [45] was > 10 µM (inactive). The GI50 [55] was 13.7 µM (inactive), the GI50 [46] was 33.7 µM (inactive) and the GI50 [47] was 14.8 µM (inactive).
